Where two headings read alike, the source gives them in different places.
Key:
[1] = biological target: His6-ERα298-554 WT (ERα ligand-binding domain) (Homo sapiens (Human), UniProt P03372); assay: Test A: biochemical antagonist activity, LanthaScreen TR-FRET ERα coactivator assay, WT; conditions: read-out: Antagonism WT IC50
Outline: (§1)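 His6-ERα LBD (0.5 nM) with 0.5 nM Tb-anti-His6 antibody, 250 nM PGC1a peptide and 3 nM (or 10 nM) estradiol in 100 mM potassium phosphate pH 7.4 with 5 mM DTT, incubated overnight at room temperature with compound.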

[2] = biological target: His6-ERα298-554 Y537S mutant (ERα ligand-binding domain) (Homo sapiens (Human), UniProt P03372, Y537S); assay: Test A: biochemical antagonist activity, LanthaScreen TR-FRET ERα coactivator assay, Y537S mutant; conditions: read-out: Antagonism Y537S IC50
Outline: as §1

[3] = tested on: MCF7 cells (breast tumor cells) WT; assay: Test B: cell proliferation/viability assay (CellTiter-Glo) on MCF7 WT; assay type: cell-based; conditions: Homo sapiens, MCF7, 168 h, 7 days of compound exposure
Outline: (§2)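 Parental MCF7 or MCF7 lines transfected with Tyr 537 Ser or Asp 538 Gly ER mutants (selected for estradiol-independent growth) were grown in phenol red-free MEM with 5% charcoal dextran-stripped FBS. Cells were treated with 9-point 1:5 dilutions (3-0.000001 μM final) for 7 days, then read by CellTiter-Glo luminescence.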

[4] = tested on: MCF7 cells expressing mutant estrogen receptor Asp 538 Gly; assay: Test B: cell proliferation/viability assay (CellTiter-Glo) on MCF7 Asp 538 Gly mutant; assay type: cell-based; conditions: Homo sapiens, MCF7, 168 h, MCF7 cells expressing ER Asp 538 Gly mutant, 7 days of compound exposure, read-out: proliferation MCF7 D538G IC50
Outline: as §2

[5] = biological target: His6-ERα298-554 D538G mutant (ERα ligand-binding domain) (Homo sapiens (Human), UniProt P03372, D538G); assay: Test A: biochemical antagonist activity, LanthaScreen TR-FRET ERα coactivator assay, D538G mutant; conditions: read-out: Antagonism D538G IC50
Outline: as §1

[6] = tested on: MCF7 cells expressing mutant estrogen receptor Tyr 537 Ser; assay: Test B: cell proliferation/viability assay (CellTiter-Glo) on MCF7 Tyr 537 Ser mutant; assay type: cell-based; conditions: Homo sapiens, MCF7, 168 h, MCF7 cells expressing ER Tyr 537 Ser mutant, 7 days of compound exposure, read-out: proliferation MCF7 Y537S IC50
Outline: as §2

[7] = biological target: ERα in MCF7 cells (Homo sapiens (Human), UniProt P03372); assay: Test C: estrogen receptor degradation activity, ERα in cell western assay in MCF7 cells; assay type: cell-based; conditions: for DC50: 4 hours post compound addition, ERα in cell western, read-out: Degradation IC50; for % Degradation at 3 μM: 4 hours, relative to fulvestrant
Outline: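 MCF7 cells in phenol red-free MEM alpha with 5% charcoal-dextran stripped FBS were treated 4 h with compound (9-point 1:5 dilutions, 3–0.000018 μM final; fulvestrant 0.1 μM as positive control). Fixed cells were immunostained for ERα (Alexa 488) and counterstained with Syto-64 for DNA.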

[8] = asterisk (*): protocol using 10 nM estradiol

His6-ERα298-554 WT (ERα ligand-binding domain), sequence (P03372 298-554): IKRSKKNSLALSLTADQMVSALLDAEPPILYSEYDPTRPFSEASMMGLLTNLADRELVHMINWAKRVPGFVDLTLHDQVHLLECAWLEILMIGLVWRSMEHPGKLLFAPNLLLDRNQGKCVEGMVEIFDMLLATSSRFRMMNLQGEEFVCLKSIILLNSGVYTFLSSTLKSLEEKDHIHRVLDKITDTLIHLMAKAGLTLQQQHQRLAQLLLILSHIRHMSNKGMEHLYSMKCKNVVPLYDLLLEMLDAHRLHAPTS
ERα in MCF7 cells, sequence (P03372 whole entry): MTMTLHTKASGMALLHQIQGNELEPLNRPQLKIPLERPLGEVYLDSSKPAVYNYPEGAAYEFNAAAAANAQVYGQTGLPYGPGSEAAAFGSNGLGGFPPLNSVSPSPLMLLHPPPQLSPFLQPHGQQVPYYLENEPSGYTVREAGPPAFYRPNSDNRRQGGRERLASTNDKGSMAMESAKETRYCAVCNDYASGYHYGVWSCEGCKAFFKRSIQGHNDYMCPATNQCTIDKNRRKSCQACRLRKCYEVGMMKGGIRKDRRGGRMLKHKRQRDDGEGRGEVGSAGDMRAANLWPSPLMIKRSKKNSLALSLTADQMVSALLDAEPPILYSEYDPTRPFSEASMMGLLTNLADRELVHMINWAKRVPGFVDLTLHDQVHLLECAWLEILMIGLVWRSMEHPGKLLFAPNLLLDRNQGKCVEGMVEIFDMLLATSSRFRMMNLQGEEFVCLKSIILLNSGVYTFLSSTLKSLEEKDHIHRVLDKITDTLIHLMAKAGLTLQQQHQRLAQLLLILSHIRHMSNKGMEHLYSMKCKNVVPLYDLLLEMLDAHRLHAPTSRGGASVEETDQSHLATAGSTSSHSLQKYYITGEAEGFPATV
His6-ERα298-554 Y537S mutant (ERα ligand-binding domain), sequence (P03372 298-554 Y537S): as the sequence (P03372 298-554) above, with Y240S counted along it
His6-ERα298-554 D538G mutant (ERα ligand-binding domain), sequence (P03372 298-554 D538G): as the sequence (P03372 298-554) above, with D241G counted along it

| Compound | IC50 [1, 8] | IC50 [2, 8] | IC50 [3] | IC50 [4] | IC50 [5, 8] | IC50 [6] | DC50 [7] | % Degradation at 3 μM [7] | IC50 ([1]; protocol with 3 nM estradiol) | IC50 ([2]; protocol with 3 nM estradiol) | IC50 ([5]; protocol with 3 nM estradiol) |
| --- | --- | --- | --- | --- | --- | --- | --- | --- | --- | --- | --- |
| CC(C)(C)c1ccc(C2=C(c3ccc(O[C@H]4CCN(CCCF)C4)cc3)c3ccc(O)cc3SC2)c(F)n1 [Example 75, 3-(6-tert-butyl-2-fluoro-3-pyridyl)-4-[4-[(3S)-1-(3-fluoropropyl)pyrrolidin-3-yl]oxyphenyl]-2H-thiochromen-7-ol] | 2490 nM | > 4000 nM | 63 nM | 74 nM | > 4000 nM | > 999 nM | 27 nM | 92% | – | – | – |
| CCOc1ccc(C2=C(c3cnc(O[C@H]4CCN(CCCF)C4)nc3)c3ccc(O)cc3SC2)c(F)n1 [Example 76, 3-(6-ethoxy-2-fluoro-3-pyridyl)-4-[2-[(3S)-1-(3-fluoropropyl)pyrrolidin-3-yl]oxypyrimidin-5-yl]-2H-thiochromen-7-ol] | 4 nM | 61 nM | 0.6 nM | 1 nM | 100 nM | 6 nM | 0.6 nM | 88% | – | – | – |
| Cc1ccc(C2=C(c3cnc(O[C@H]4CCN(CCCF)C4)nc3)c3ccc(O)cc3SC2)c(F)c1 [Example 77, 3-(2-fluoro-4-methyl-phenyl)-4-[2-[(3S)-1-(3-fluoropropyl)pyrrolidin-3-yl]oxypyrimidin-5-yl]-2H-thiochromen-7-ol] | 16 nM | 197 nM | 2 nM | 5 nM | 323 nM | 29 nM | 1 nM | 91% | – | – | – |
| Cc1ccc(C2=C(c3ccc(O[C@H]4CCN(CCCF)C4)nc3)c3ccc(O)cc3SC2)c(F)c1 [Example 78, 3-(2-fluoro-4-methyl-phenyl)-4-[6-[(3S)-1-(3-fluoropropyl)pyrrolidin-3-yl]oxy-3-pyridyl]-2H-thiochromen-7-ol] | 1 nM | 15 nM | 0.3 nM | 0.9 nM | 29 nM | 4 nM | 0.2 nM | 88% | – | – | – |
| CCOc1ccc(C2=C(c3ccc(O[C@H]4CCN(CCCF)C4)nc3)c3ccc(O)cc3SC2)c(F)n1 [Example 79, 3-(6-ethoxy-2-fluoro-3-pyridyl)-4-[6-[(3S)-1-(3-fluoropropyl)pyrrolidin-3-yl]oxy-3-pyridyl]-2H-thiochromen-7-ol] | 0.5 nM | 5 nM | 0.3 nM | 5 nM | 6 nM | 0.8 nM | 0.2 nM | 89% | – | – | – |
| Oc1ccc2c(c1)SCC(c1ccc(OC(F)(F)F)cc1)=C2c1ccc(O[C@H]2CCN(CCCF)C2)nc1 [Example 80, 4-[6-[(3S)-1-(3-fluoropropyl)pyrrolidin-3-yl]oxy-3-pyridyl]-3-[4-(trifluoromethoxy)phenyl]-2H-thiochromen-7-ol] | 12 nM | 154 nM | 0.3 nM | 0.4 nM | 283 nM | 3 nM | 0.2 nM | 89% | – | – | – |
| Oc1ccc2c(c1)OCC(c1ccc(Cl)cc1Cl)=C2c1ccc(O[C@H]2CCN(CCCF)C2)cc1 [Example 81, 3-(2,4-dichlorophenyl)-4-[4-[(3S)-1-(3-fluoropropyl)pyrrolidin-3-yl]oxyphenyl]-2H-chromen-7-ol] | 520 nM | > 4000 nM | 18 nM | 3.5 nM | > 4000 nM | 17 nM | 7 nM | 77% | – | – | – |
| Oc1ccc2c(c1)OCC(c1ccc(F)cc1Cl)=C2c1ccc(O[C@H]2CCN(CCCF)C2)cc1 [Example 82, 3-(2-chloro-4-fluoro-phenyl)-4-[4-[(3S)-1-(3-fluoropropyl)pyrrolidin-3-yl]oxyphenyl]-2H-chromen-7-ol] | 297 nM | 2290 nM | 15 nM | 1 nM | > 4000 nM | 18 nM | 7 nM | 86% | – | – | – |
| Oc1ccc(C2=C(c3ccc(O[C@H]4CCN(CCCF)C4)cc3)c3ccc(O)cc3OC2)cc1 [Example 83, 4-[4-[(3S)-1-(3-fluoropropyl)pyrrolidin-3-yl]oxyphenyl]-3-(4-hydroxyphenyl)-2H-chromen-7-ol] | – | – | 2 nM | 13 nM | – | 18 nM | 2 nM | 75% | 81 nM | 1160 nM | 1320 nM |
| Oc1ccc2c(c1)C(c1ccc(N[C@H]3CCN(CCCF)C3)cc1)=C(c1ccc(F)cc1Cl)CC2 [Example 84, 7-(2-chloro-4-fluoro-phenyl)-8-[4-[[(3S)-1-(3-fluoropropyl)pyrrolidin-3-yl]amino]phenyl]-5,6-dihydronaphthalen-2-ol] | – | – | 0.4 nM | 2 nM | – | 6 nM | 2 nM | 78% | 30 nM | 958 nM | 1750 nM |
| Oc1ccc2c(c1)CCCC(c1ccc(Cl)cc1Cl)=C2c1ccc(N[C@H]2CCN(CCCF)C2)cc1 [Example 85, 6-(2,4-dichlorophenyl)-5-[4-[[(3S)-1-(3-fluoropropyl)pyrrolidin-3-yl]amino]phenyl]-8,9-dihydro-7H-benzo[7]annulen-2-ol] | 1 nM | 15 nM | 0.4 nM | 0.7 nM | 21 nM | 7 nM | 1 nM | 86% | – | – | – |
| CCOc1ccc(C2=C(c3ccc(N[C@H]4CCN(CCCF)C4)cc3)c3ccc(O)cc3CCC2)c(F)n1 [Example 86, 6-(6-ethoxy-2-fluoro-3-pyridyl)-5-[4-[[(3S)-1-(3-fluoropropyl)pyrrolidin-3-yl]amino]phenyl]-8,9-dihydro-7H-benzo[7]annulen-2-ol] | 0.5 nM | 5 nM | 0.2 nM | 0.2 nM | 7 nM | 1 nM | 0.5 nM | 95% | – | – | – |
| Oc1ccc2c(c1)CCCC(c1ccc(OC(F)(F)F)cc1)=C2c1ccc(N[C@H]2CCN(CCCF)C2)cc1 [Example 87, 5-[4-[[(3S)-1-(3-fluoropropyl)pyrrolidin-3-yl]amino]phenyl]-6-[4-(trifluoromethoxy)phenyl]-8,9-dihydro-7H-benzo[7]annulen-2-ol] | 23 nM | 294 nM | 0.2 nM | 1 nM | 568 nM | 3 nM | 0.4 nM | 83% | – | – | – |
| Oc1ccc2c(c1)CCCC(c1ccc(OC(F)(F)F)cc1F)=C2c1ccc(N[C@H]2CCN(CCCF)C2)cc1 [Example 88, 5-[4-[[(3S)-1-(3-fluoropropyl)pyrrolidin-3-yl]amino]phenyl]-6-[2-fluoro-4-(trifluoromethoxy)phenyl]-8,9-dihydro-7H-benzo[7]annulen-2-ol] | 12 nM | 159 nM | 0.3 nM | 0.6 nM | 293 nM | 3 nM | 0.2 nM | 88% | – | – | – |
| CC(C)(C)c1ccc(C2=C(c3ccc(N[C@H]4CCN(CCCF)C4)cc3)c3ccc(O)cc3CCC2)cc1 [Example 89, 6-(4-tert-butylphenyl)-5-[4-[[(3S)-1-(3-fluoropropyl)pyrrolidin-3-yl]amino]phenyl]-8,9-dihydro-7H-benzo[7]annulen-2-ol] | 27 nM | 423 nM | 0.4 nM | 1 nM | 726 nM | 5 nM | 1 nM | 91% | – | – | – |
| Oc1ccc2c(c1)CCCC(c1ccc(SC(F)(F)F)cc1)=C2c1ccc(N[C@H]2CCN(CCCF)C2)cc1 [Example 90, 5-[4-[[(3S)-1-(3-fluoropropyl)pyrrolidin-3-yl]amino]phenyl]-6-[4-(trifluoromethylsulfanyl)phenyl]-8,9-dihydro-7H-benzo[7]annulen-2-ol] | 12 nM | 165 nM | 0.3 nM | 0.5 nM | 293 nM | 4 nM | 0.4 nM | 91% | – | – | – |

From patent publication US11149031B2, “Substituted N-(3-fluoropropyl)-pyrrolidine compounds, processes for their preparation and therapeutic uses thereof” (SANOFI, priority 2016, dated 2021)
